This note sets out measurements from patent publication US20040142979A1, “Heteroarylsulfonylmethyl hydroxamic acids and amides and their use as protease inhibitors” (priority 2002, published 2004).

Structures are written as SMILES. A value given as a limit tells only on which side of the number the result lay.

One assay deals with T1, Human recombinant MMP-13 (Homo sapiens, UniProt P45452).
T1 construct: made in house; host or cells: baculovirus / insect cells
As to the kind of experiment: In vitro MMP inhibition analysis (fluorogenic peptide substrate), MMP-13. The class given is biochemical. The following applies: human recombinant enzyme; 4 μM substrate (A); apparent Ki without substrate correction. The protocol: (§1) Several compounds and salts were analyzed in an in vitro assay to determine their ability to inhibit the MMP cleavage of peptide substrates. Inhibition constant (Ki) were calculated from the assayed compound-MMP interactions.
(§2) Human recombinant MMP-1, MMP-2, MMP-9, MMP-13, and MMP-14 were used in this assay. All enzymes were prepared in Assignee's laboratories following usual laboratory procedures. Protocols for the preparation and use of these enzymes are available in the scientific literature. See, e.g., Enzyme Nomenclature (Academic Press, San Diego, Calif., 1992) (and the citations therein). See also, Freije et al., J. Biol. Chem., 269(24), 16766-16773 (1994).
The MMP-13 was obtained as a proenzyme from a full-length cDNA clone using baculovirus, as described by V. A. Luckow, “Insect Cell Expression Technology,” Protein Engineering: Principles and Practice, pp. 183-218 (edited by J. L. Cleland et al., Wiley-Liss, Inc., 1996). The expressed proenzyme was first purified over a heparin agarose column, and then over a chelating zinc chloride column. The proenzyme was then activated by APMA for use in the assay. […] See also, O'Reilly et al, Baculovirus Expression Vectors: A Laboratory Manual (W. H. Freeman and Co., New York, N.Y., 1992). See also, King et al., The Baculovirus Expression System: A Laboratory Guide (Chapman & Hall, London, England, 1992).
(§3) All MMPs were activated using 4-aminophenylmercuric acetate (“APMA”, Sigma Chemical, St. Louis, Mo.) or trypsin. MMP-9 also was activated using human recombinant MMP-3 (purified in Assignee's laboratory following standard cloning and purification techniques).
(§4) The following fluorogenic, methoxycoumarin-containing polypeptide substrate (A) was used in the MMP inhibition assays:
(§5) MCA-ArgProLeuGlyLeuDpaAlaArgGluArgNH2 (A)
(§6) “MCA” is 7-methoxycoumarin-4-yl acetyl. Substrate (A) was prepared Assignee's laboratory. In the absence of MMP inhibitory activity, the substrate is cleaved at the Gly-Leu peptide bond. This cleavage separates the highly fluorogenic peptide from the 2,4-dinitrophenyl quencher, thus resulting in increase of fluorescent intensity.
(§7) The stock solutions of the assayed compounds and salts were prepared in 1% dimethyl sulfoxide (DMSO). These stock solutions were diluted in Buffer A (100 mM Tris-HCl, 100 mM NaCl, 10 mM CaCl2, 0.05% polyoxyethylene 23 lauryl ether, pH 7.5) to obtain solutions with different compound concentrations, i.e., assay solutions with different concentrations of the assayed MMP inhibitory compound. The experiment controls contained the same amount of Buffer A/DMSO as the assayed sample, but contained none of the tested compound or salt.
The assays from which the Ki determinations were made were performed as follows. The assayed compound samples were incubated in separate wells of untreated white polystyrene plates (Nunc Nalgene International, Rochester, N.Y.), and analyzed on a Tecan SpectraFlour Plus plate reader. The excitation wavelength was 330 nm, and the emission wavelength -420 nm. All samples (assayed compounds and controls) were incubated in separate plate wells at room temperature for 1 hr in the presence of 4 μM of MMP substrate (A). In the absence of MMP inhibitory activity, substrate (A) was cleaved at the Gly-Leu bond resulting in an increase of relative fluorescence. Inhibition was observed as a reduced rate of this increase in relative fluorescence. […] This protocol is a modification of method by Knight et al., FEBS Lett., 296(3), 263-266 (1992). Apparent inhibitory constants were determined by non-linear regression of reaction velocity as a function of inhibitor and enzyme concentration using Morrison's equation, as described by Kuzmic, P., et al., Anal. Biochem., 286(1):45-50 (2000). […] Since the substrate concentration was chosen to be at or below the Km, the apparent Ki's from this analysis were reported as Ki's without correction for the influence of substrate.
All Ki values in Table 3 are given in nM units.

The next assay has as its target T2, Human recombinant MMP-9 (Homo sapiens, UniProt P14780).
T2 construct: made in house; host or cells: MMP-9-transfected HT1080 cells (spent media)
Nature of the assay: In vitro MMP inhibition analysis (fluorogenic peptide substrate), MMP-9. The class given is biochemical. The following applies: human recombinant enzyme; 4 μM substrate (A); apparent Ki without substrate correction. On the procedure: as §1, §2
The MMP-9 proenzyme was purified by gelatin Sepharose chromatography from spent media of MMP-9-transfected HT1080 cells provided by Dr. Howard Welgus of Washington University (St. Louis, Mo.).
as §3, §4, §5, §6, §7
The assays from which the Ki determinations were made were performed as follows. The assayed compound samples were incubated in separate wells of untreated white polystyrene plates (Nunc Nalgene International, Rochester, N.Y.), and analyzed on a Tecan SpectraFlour Plus plate reader. The excitation wavelength was 330 nm, and the emission wavelength -420 nm. All samples (assayed compounds and controls) were incubated in separate plate wells at room temperature for 1 hr in the presence of 4 μM of MMP substrate (A). In the absence of MMP inhibitory activity, substrate (A) was cleaved at the Gly-Leu bond resulting in an increase of relative fluorescence. Inhibition was observed as a reduced rate of this increase in relative fluorescence. […] This protocol is a modification of method by Knight et al., FEBS Lett., 296(3), 263-266 (1992). Apparent inhibitory constants were determined by non-linear regression of reaction velocity as a function of inhibitor and enzyme concentration using Morrison's equation, as described by Kuzmic, P., et al., Anal. Biochem., 286(1):45-50 (2000). Modifications were made in the non-linear regression method to allow a common control reaction rate and effective enzyme concentration to be shared between all dose-response relationships on a given assay plate. Since the substrate concentration was chosen to be at or below the Km, the apparent Ki's from this analysis were reported as Ki's without correction for the influence of substrate.
The above protocols were used to determine MMP inhibition Ki constants for the compounds in Examples 1, 2, and 4-42 above. All Ki values in Table 3 are given in nM units.

T2 sequence (P14780 107-707 limits assumed): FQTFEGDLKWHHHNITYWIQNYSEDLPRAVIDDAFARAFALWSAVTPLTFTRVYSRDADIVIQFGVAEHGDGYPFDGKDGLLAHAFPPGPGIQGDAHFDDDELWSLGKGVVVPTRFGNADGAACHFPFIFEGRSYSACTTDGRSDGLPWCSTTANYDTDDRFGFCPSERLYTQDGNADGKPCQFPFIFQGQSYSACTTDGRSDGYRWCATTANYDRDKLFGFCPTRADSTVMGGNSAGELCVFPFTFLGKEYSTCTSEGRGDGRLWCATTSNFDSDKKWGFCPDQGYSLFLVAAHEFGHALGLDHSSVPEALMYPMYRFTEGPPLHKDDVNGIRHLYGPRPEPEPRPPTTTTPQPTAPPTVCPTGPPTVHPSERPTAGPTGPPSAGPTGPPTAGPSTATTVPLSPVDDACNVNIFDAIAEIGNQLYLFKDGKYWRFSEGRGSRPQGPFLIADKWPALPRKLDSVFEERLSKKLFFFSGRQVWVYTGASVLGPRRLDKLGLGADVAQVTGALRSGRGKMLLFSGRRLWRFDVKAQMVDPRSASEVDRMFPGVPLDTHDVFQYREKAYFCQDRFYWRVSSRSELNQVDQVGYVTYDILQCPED

Regarding `CCCCOc1ccc(-c2ccc(S(=O)(=O)C3(C(=O)NO)CCOCC3)s2)cc1` [Example 43], the Ki on Human recombinant MMP-13 stood at 0.127 nM; on Human recombinant MMP-9 it was 0.806 nM.

As for `CC(C)Cc1ncc(-c2nc3ccc(S(=O)(=O)C4(C(=O)NO)CCOCC4)cc3s2)s1` [Example 54], the Ki at Human recombinant MMP-13 worked out at 2.73 nM; on Human recombinant MMP-9, 99 nM.

Turning to `O=C(NO)C1(S(=O)(=O)c2ccc3nc(-c4ccc(C(F)(F)F)cc4)sc3c2)CCOCC1` [Example 57], the Ki at Human recombinant MMP-13 came out at 0.384 nM; on Human recombinant MMP-9, 0.964 nM.

`O=C(NO)C1(S(=O)(=O)c2ccc3nc(N4CCC(Oc5ccc(OC(F)(F)F)cc5)CC4)sc3c2)CCOCC1` [Example 56]: the results for the Ki at Human recombinant MMP-13 and on Human recombinant MMP-9 were 3.43 nM and 68.5 nM, respectively.

Turning to `O=C(NO)C1(S(=O)(=O)c2ccc3nc(-c4ccc5c(c4)OCO5)sc3c2)CCOCC1` [Example 65], the Ki at Human recombinant MMP-13 is 1.05 nM; at Human recombinant MMP-9, 7.2 nM.

Turning to `CN(C(=O)Cc1ccc(-c2ccc(S(=O)(=O)C3(C(=O)NO)CCOCC3)cn2)cc1)c1ccc(OC(F)(F)F)cc1` [Example 75], the figures for the Ki on Human recombinant MMP-13 and at Human recombinant MMP-9 were 140 nM and 0.159 nM, respectively.

For `CCN(CC)C(=O)c1ccc(-c2ccc(S(=O)(=O)C3(C(=O)NO)CCOCC3)cn2)cc1` [Example 79], the Ki on Human recombinant MMP-13 is 607 nM; at Human recombinant MMP-9, > 10000 nM.
